Values of other authors as cited in PMC7238120, “Strong and Selective Inhibitory Effects of the Biflavonoid Selamariscina A against CYP2C8 and CYP2C9 Enzyme Activities in Human Liver Microsomes” (Pharmaceutics, 2020).
Where two headings read alike, the source gives them in different places.

Assays:
CYP3A4 = system: CYP3A4; design: method as in PMID 1602384; conditions: HLMs; cited from earlier work
CYP1A2 = biological target: T1, CYP1A2 (Homo sapiens, UniProt P05177); design: method as in PMID 7483658; conditions: human liver microsomes; read-out: Ki, CYP1A2, competitive inhibition; cited from earlier work
T1 construct: incubation mixtures containing pooled human liver microsomes (HLMs, XTreme 200, XenoTech); tissue XenoTech XTreme 200; host or cells: pooled human liver microsomes
T1 sequence (P05177 1-516): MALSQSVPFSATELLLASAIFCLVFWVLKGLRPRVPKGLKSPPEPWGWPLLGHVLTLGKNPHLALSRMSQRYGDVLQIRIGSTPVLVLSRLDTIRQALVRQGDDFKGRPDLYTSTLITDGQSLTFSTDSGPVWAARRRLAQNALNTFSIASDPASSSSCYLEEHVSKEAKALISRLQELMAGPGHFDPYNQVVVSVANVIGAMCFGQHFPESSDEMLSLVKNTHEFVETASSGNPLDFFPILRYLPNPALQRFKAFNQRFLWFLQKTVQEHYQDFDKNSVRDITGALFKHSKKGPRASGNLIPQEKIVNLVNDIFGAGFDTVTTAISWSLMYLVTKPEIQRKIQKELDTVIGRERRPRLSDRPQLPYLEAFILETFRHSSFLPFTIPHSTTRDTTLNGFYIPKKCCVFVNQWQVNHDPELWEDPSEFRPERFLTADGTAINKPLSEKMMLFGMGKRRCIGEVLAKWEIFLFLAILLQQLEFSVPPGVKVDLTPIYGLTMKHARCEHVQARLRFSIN

UGT1A1 = biological target: T2, UGT1A1 (Homo sapiens, UniProt P22309); design: method as in PMID 12386134; conditions: read-out: IC50, UGT1A1-mediated estradiol glucuronidation; cited from earlier work
T2 sequence (P22309 26-533): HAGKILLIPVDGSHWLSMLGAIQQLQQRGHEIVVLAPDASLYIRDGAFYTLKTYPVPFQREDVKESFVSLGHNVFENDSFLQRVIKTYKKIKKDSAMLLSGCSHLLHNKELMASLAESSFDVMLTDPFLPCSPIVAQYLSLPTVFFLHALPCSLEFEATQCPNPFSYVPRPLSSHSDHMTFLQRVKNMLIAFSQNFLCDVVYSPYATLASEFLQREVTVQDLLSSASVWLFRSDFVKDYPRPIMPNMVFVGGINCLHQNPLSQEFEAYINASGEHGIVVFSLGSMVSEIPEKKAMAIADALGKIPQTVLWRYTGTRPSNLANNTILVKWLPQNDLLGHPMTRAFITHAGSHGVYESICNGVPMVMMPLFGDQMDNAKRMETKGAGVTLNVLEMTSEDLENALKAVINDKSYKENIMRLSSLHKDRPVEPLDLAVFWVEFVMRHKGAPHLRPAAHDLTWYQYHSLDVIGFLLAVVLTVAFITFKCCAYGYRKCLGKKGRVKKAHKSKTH

CYP2C9 = CYP2C9 (Homo sapiens, UniProt P11712); conditions: read-out: Ki, CYP2C9, known inhibitor; cited from earlier work
CYP2C8 = biological target: T3, CYP2C8 (Homo sapiens, UniProt P10632); conditions: cited from earlier work
T3 sequence (P10632 1-490): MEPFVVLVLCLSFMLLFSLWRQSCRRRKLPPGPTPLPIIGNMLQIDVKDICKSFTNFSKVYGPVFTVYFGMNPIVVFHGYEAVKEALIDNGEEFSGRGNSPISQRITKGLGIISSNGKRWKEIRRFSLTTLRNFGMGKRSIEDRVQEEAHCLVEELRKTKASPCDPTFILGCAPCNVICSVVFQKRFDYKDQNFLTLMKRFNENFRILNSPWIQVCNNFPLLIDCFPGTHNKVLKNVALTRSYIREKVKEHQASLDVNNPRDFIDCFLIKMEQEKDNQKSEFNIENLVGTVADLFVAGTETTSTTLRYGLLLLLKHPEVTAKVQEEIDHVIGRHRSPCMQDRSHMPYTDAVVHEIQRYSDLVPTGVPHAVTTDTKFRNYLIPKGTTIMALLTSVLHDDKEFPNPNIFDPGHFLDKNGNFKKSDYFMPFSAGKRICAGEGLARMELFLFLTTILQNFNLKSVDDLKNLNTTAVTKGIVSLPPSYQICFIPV

[1] = read-out: Ki, CYP2C8, known inhibitor

Chain of CYP2C9 (P11712 whole entry): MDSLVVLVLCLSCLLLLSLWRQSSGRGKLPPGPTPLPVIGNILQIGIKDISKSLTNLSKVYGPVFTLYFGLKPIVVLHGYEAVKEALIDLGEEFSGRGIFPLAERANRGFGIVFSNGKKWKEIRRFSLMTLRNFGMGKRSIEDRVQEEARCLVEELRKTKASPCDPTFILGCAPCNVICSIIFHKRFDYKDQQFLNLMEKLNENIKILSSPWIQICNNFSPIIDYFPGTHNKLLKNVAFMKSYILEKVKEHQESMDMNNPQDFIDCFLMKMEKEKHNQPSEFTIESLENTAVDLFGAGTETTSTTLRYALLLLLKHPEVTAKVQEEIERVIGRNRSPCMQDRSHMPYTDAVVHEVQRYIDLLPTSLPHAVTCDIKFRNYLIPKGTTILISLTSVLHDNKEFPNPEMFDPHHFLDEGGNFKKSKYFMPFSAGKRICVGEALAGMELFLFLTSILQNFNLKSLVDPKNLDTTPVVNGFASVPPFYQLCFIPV

O=c1c(O)c(-c2ccc(O)c(O)c2)oc2cc(O)cc(O)c12 [quercetin]
Concentrations inhibiting metabolism of nifedipine and felodipine by CYP3A4 (CYP3A4): > 10 µM

COc1ccc(-c2cc(=O)c3c(OC)c(OC)c(OC)c(OC)c3o2)cc1 [tangeretin]
Ki (CYP1A2): 68 nM | IC50 (UGT1A1): 1000 nM

CNCCC(Oc1ccc(C(F)(F)F)cc1)c1ccccc1 (stereo not shown) [fluoxetine]
Ki (CYP2C9): 19000 to 87000 nM

Cc1cn(-c2cc(NC(=O)c3ccc(C)c(Nc4nccc(-c5cccnc5)n4)c3)cc(C(F)(F)F)c2)cn1 [nilotinib]
Ki (CYP2C8; [1]): 100 nM

COCCCC/C(=N\OCCN)c1ccc(C(F)(F)F)cc1 [fluvoxamine]
Ki (CYP2C9): 630 to 16000 nM

CCOC(=O)C1=C(C)NC(C)=C(C(=O)OC)C1c1cccc(Cl)c1Cl (stereo not shown) [felodipine]
IC50 (CYP2C8; read-out: IC50, CYP2C8, known inhibitor): 1200 nM

CNC(=O)c1ccccc1Sc1ccc2c(/C=C/c3ccccn3)n[nH]c2c1 [axitinib]
Ki (CYP2C8; [1]): 170 nM

COc1cc(C(=O)NS(=O)(=O)c2ccccc2C)ccc1Cc1cn(C)c2ccc(NC(=O)OC3CCCC3)cc12 [zafirlukast]
Ki (CYP2C8; read-out: Ki, CYP2C8, well-known inhibitor): 390 nM

O=c1c(O)c(-c2ccc(O)cc2)oc2cc(O)cc(O)c12 [kaempferol]
Concentrations inhibiting metabolism of nifedipine and felodipine by CYP3A4 (CYP3A4): > 10 µM
